The values that follow come from US11117861B2, “Phenylpyrrolidinone formyl peptide 2 receptor agonists” (BRISTOL-MYERS SQUIBB COMPANY, priority 2018, dated 2021).

For orientation: EC50 means the concentration at which the effect is half-maximal.

One assay addresses human FPR1 (Homo sapiens (Human), UniProt P21462). Description: FPR1 cyclic adenosine monophosphate (cAMP) assay in CHO cells overexpressing human FPR1. It is filed as cell-based. The settings on record: forskolin 10 μM, inhibition of cAMP production, read-out: hFPR1 cAMP EC50. For orientation: cAMP levels reflect the balance of adenylyl cyclase and phosphodiesterase activity.
A further assay addresses human FPR2 (Homo sapiens (Human), UniProt P25090). As to the kind of experiment: FPR2 cyclic adenosine monophosphate (cAMP) assay in CHO cells overexpressing human FPR2. The format is cell-based. The settings on record: forskolin 5 μM, inhibition of cAMP production, read-out: hFPR2 cAMP2 EC50. The text has this:
N-formyl peptide receptors (FPRs) are a family of chemo attractant receptors that facilitate leukocyte response during inflammation. FPRs belong to the seven-transmembrane G protein-coupled receptor superfamily and are linked to inhibitory G-proteins (Gi). Three family members (FPR1, FPR2 and FPR3) have been identified in humans and are predominantly found in myeloid cells with varied distribution and have also been reported in multiple organs and tissues. After agonist binding, the FPRs activate a multitude of physiological pathways, such as intra cellular signaling transduction, Ca^2+ mobilization and transcription. The family interacts with a diverse set of ligands that includes proteins, polypeptides and fatty acid metabolites which activate both pro-inflammatory and pro-resolution downstream responses. […]
FPR2 and FPR1 Cyclic Adenosine Monophosphate (cAMP) Assays. […] The level of intracellular cAMP was determined using the HTRF HiRange cAMP assay reagent kit (Cisbio) according to manufacturer's instruction. […] After a 1-h room temperature incubation, time-resolved fluorescence intensity was measured using the Envision (Perkin-Elmer) at 400 nm excitation and dual emission at 590 nm and 665 nm. […] The potency and activity of a compound to inhibit cAMP production was then determined by fitting to a 4-parametric logistic equation from a plot of cAMP level versus compound concentrations. […]

Chain of human FPR1 (P21462 whole entry): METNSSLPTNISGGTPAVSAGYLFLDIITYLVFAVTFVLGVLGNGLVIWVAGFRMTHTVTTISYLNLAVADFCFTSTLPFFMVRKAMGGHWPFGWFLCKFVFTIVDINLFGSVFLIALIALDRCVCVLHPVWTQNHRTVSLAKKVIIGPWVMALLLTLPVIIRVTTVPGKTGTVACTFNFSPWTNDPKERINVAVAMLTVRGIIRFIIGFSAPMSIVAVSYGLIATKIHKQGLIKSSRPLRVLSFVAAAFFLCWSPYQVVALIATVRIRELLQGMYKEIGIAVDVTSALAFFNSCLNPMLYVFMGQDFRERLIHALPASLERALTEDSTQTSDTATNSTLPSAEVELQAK
Chain of human FPR2 (P25090 whole entry): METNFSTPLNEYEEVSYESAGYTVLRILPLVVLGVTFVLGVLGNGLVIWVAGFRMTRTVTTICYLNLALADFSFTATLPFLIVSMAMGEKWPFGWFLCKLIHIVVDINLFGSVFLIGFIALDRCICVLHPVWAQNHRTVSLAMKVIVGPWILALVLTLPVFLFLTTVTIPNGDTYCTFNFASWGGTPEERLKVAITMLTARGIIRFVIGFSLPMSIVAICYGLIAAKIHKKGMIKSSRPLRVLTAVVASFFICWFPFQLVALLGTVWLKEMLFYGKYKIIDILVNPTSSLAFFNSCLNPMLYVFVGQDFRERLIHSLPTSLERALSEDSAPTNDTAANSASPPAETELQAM
Method for human FPR1: FPR2 and FPR1 Cyclic Adenosine Monophosphate (cAMP) Assays were used to measure the activity of the compounds in this patent.
A mixture of forskolin (5 μM final for FPR2 or 10 μM final for FPR1) and IBMX (200 μM final) were added to 384-well Proxiplates (Perkin-Elmer) pre-dotted with test compounds in DMSO (1% final) at final concentrations in the range of 0.020 nM to 100 μM. Chinese Hamster Ovary cells (CHO) overexpressing human FPR1 or human FPR2 receptors were cultured in F-12 (Ham's) medium supplemented with 10% qualified FBS, 250 μg/ml zeocin and 300 μg/ml hygromycin (Life Technologies). Reactions were initiated by adding 2,000 human FPR2 cells per well or 4,000 human FPR1 cells per well in Dulbecco's PBS (with calcium and magnesium) (Life Technologies) supplemented with 0.1% BSA (Perkin-Elmer). The reaction mixtures were incubated for 30 min at room temperature. The level of intracellular cAMP was determined using the HTRF HiRange cAMP assay reagent kit (Cisbio) according to manufacturer's instruction. Solutions of cryptate conjugated anti-cAMP and d2 flurorophore-labelled cAMP were made in a supplied lysis buffer separately. […] The potency and activity of a compound to inhibit cAMP production was then determined by fitting to a 4-parametric logistic equation from a plot of cAMP level versus compound concentrations.

On to `COc1c(-c2ccccc2CO)ccc(N2CC[C@@H](NC(=O)Nc3ccc(Cl)cc3F)C2=O)c1F` [Example 35], for which the concentration for a half-maximal effect (EC50) turned out to be 52 nM on human FPR1 and 8.6 nM on human FPR2.
